Laboratory results published in patent publication US20250270213A1, “PI3Ka INHIBITORS” (Synnovation Therapeutics, Inc., priority 2022, published 2025).

Tested on: T47D (PIK3CA H1047R) cells
Experiment: pS473 AKT assay with 2.5% FBS, T47D cells
Format: cell-based
Conditions: Homo sapiens, pSer473 AKT, DMEM with 2.5% FBS, 2 h treatment, read-out: T47D_IC50
Outline: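 T47D (PIK3CA H1047R) cells were switched to DMEM with 2.5% FBS and exposed to compounds for 2 h. After paraformaldehyde fixation, pSer473 AKT was detected by in-cell ELISA (rabbit primary, HRP anti-rabbit secondary, chemiluminescence); IC50 values were fitted from the concentration series.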

IC50, < 1 µM:
Cc1cc(C(C)Nc2ccc(Cl)nc2-c2ccncc2F)c2c(c1)c(=O)n(C)c1c2cnn1CC1CCN(CC(F)F)C1 (stereo not shown) [Compound 110, 9-(1-((6-Chloro-3′-fluoro-[2,4′-bipyridin]-3-yl)amino)ethyl)-3-((1-(2,2-difluoroethyl)pyrrolidin-3-yl)methyl)-4,7-dimethyl-3,4-dihydro-5H-pyrazolo[3,4-c]isoquinolin-5-one]
Cc1cc(C(C)Nc2ccc(Cl)nc2-c2ncn(C)n2)c2c(c1)c(=O)n(C)c1c(C(C)O)ncn21 (stereo not shown) [Compound 111, 9-(1-((6-Chloro-2-(1-methyl-1H-1,2,4-triazol-3-yl)pyridin-3-yl)amino)ethyl)-3-(1-hydroxyethyl)-4,7-dimethylimidazo[1,5-a]quinazolin-5(4H)-one]
Cc1cc(C(C)Nc2ccc(Cl)nc2-c2ncn(C)n2)c2c(c1)c(=O)n(C)c1c(-c3cccnc3)ncn21 (stereo not shown) [Compound 112, 9-(1-((6-Chloro-2-(1-methyl-1H-1,2,4-triazol-3-yl)pyridin-3-yl)amino)ethyl)-4,7-dimethyl-3-(pyridin-3-yl) imidazo[1,5-a]quinazolin-5(4H)-one]
Cc1cc(C(C)Nc2ccc(Cl)nc2-c2ncn(C)n2)c2c(c1)c(=O)n(C)c1c(-c3cccnc3C)ncn21 (stereo not shown) [Compound 113, 9-(1-((6-chloro-2-(1-methyl-1H-1,2,4-triazol-3-yl)pyridin-3-yl)amino)ethyl)-4,7-dimethyl-3-(2-methylpyridin-3-yl)imidazo[1,5-a]quinazolin-5(4H)-one]
Cc1cc(C(C)Nc2ccc(Cl)nc2-c2ncn(C)n2)c2c(c1)c(=O)n(C)c1c(-c3cncnc3)ncn21 (stereo not shown) [Compound 114, 9-(1-((6-chloro-2-(1-methyl-1H-1,2,4-triazol-3-yl)pyridin-3-yl)amino)ethyl)-4,7-dimethyl-3-(pyrimidin-5-yl)imidazo[1,5-a]quinazolin-5(4H)-one]
Cc1cc(C(C)Nc2ccc(Cl)nc2-c2ncn(C)n2)c2c(c1)c(=O)n(C)c1c(-c3ccnc(C)c3)ncn21 (stereo not shown) [Compound 115, 9-(1-((6-chloro-2-(1-methyl-1H-1,2,4-triazol-3-yl)pyridin-3-yl)amino)ethyl)-4,7-dimethyl-3-(2-methylpyridin-4-yl)imidazo[1,5-a]quinazolin-5(4H)-one]
Cc1cc(C(C)Nc2ccc(Cl)nc2-c2cnn(C)c2)c2c(c1)c(=O)n(C)c1c(-c3cccnc3C)ncn21 (stereo not shown) [Compound 116, 9-(1-((6-Chloro-2-(1-methyl-1H-pyrazol-4-yl)pyridin-3-yl)amino)ethyl)-4,7-dimethyl-3-(2-methylpyridin-3-yl) imidazo[1,5-a]quinazolin-5(4H)-one]
Cc1cc(C(C)Nc2ccc(Cl)nc2-c2cnn(C)c2)c2c(c1)c(=O)n(C)c1c(-c3cncnc3)ncn21 (stereo not shown) [Compound 117, 9-(1-((6-chloro-2-(1-methyl-1H-pyrazol-4-yl)pyridin-3-yl)amino)ethyl)-4,7-dimethyl-3-(pyrimidin-5-yl)imidazo[1,5-a]quinazolin-5(4H)-one]
CNC(=O)c1cc(-c2ncn3c4c(C(C)Nc5ccc(Cl)nc5-c5cnn(C)c5)cc(C)cc4c(=O)n(C)c23)ccn1 (stereo not shown) [Compound 118, 4-(9-(1-((6-chloro-2-(1-methyl-1H-pyrazol-4-yl)pyridin-3-yl)amino)ethyl)-4,7-dimethyl-5-oxo-4,5-dihydroimidazo[1,5-a]quinazolin-3-yl)-N-methylpicolinamide]
Cc1cc(C(C)Nc2ccc(Cl)nc2-c2ncn(C)n2)c2c(c1)c(=O)n(C)c1c(C(=O)N(C)C)ncn21 (stereo not shown) [Compound 119, 9-(1-((6-Chloro-2-(1-methyl-1H-1,2,4-triazol-3-yl)pyridin-3-yl)amino)ethyl)-N,N,4,7-tetramethyl-5-oxo-4,5-dihydroimidazo[1,5-a]quinazoline-3-carboxamide]
